In assay [1] the target is T1, Beta-secretase 1 (Homo sapiens, UniProt P56817). As to the kind of experiment: Inhibition of recombinant human BACE1 assessed as dissociation constant of enzyme-substrate-inhibitor complex using Rh-EVNLDAEFK as substrate by Dixon and Cornish-Bowden plots analysis.
For assay [2], the target named is T1, Beta-secretase 1. As to the kind of experiment: Inhibition of recombinant human BACE1 assessed as dissociation constant of enzyme-inhibitor complex using Rh-EVNLDAEFK as substrate by Dixon and Cornish-Bowden plots analysis.
For assay [3], the target named is T1, Beta-secretase 1. Put plainly: Non-competitive inhibition of recombinant human BACE1 using Rh-EVNLDAEFK as substrate by Dixon and Cornish-Bowden plots analysis.
For assay [4], the target named is T1, Beta-secretase 1. As to the kind of experiment: Inhibition of recombinant human BACE1 using Rh-EVNLDAEFK as substrate after 60 mins by fluorescence quenching assay.
In assay [5] the target is T1, Beta-secretase 1. As to the kind of experiment: Mixed type inhibition of recombinant human BACE1 using Rh-EVNLDAEFK as substrate by Dixon and Cornish-Bowden plots analysis.

We go through 45 compounds from ChEMBL document CHEMBL1932923, “Structure-activity relationships for naturally occurring coumarins as β-secretase inhibitor” (Bioorg Med Chem, 2012).

Active and inactive are the calls of the source. The calls are words filed in the database; no cut-off is given here. Non-standard residues stand in square brackets, D forms with d. Residues, ends and D or L forms follow the SMILES beside them. Sta = CC(C)C[C@H](N)[C@@H](O)CC(=O)O

As usually defined, the Ki is the dissociation constant of the complex between target and ligand, obtained from inhibition or displacement. As usually defined, the IC50 is the concentration that inhibits the measured activity by half.

T1 sequence (P56817 whole entry): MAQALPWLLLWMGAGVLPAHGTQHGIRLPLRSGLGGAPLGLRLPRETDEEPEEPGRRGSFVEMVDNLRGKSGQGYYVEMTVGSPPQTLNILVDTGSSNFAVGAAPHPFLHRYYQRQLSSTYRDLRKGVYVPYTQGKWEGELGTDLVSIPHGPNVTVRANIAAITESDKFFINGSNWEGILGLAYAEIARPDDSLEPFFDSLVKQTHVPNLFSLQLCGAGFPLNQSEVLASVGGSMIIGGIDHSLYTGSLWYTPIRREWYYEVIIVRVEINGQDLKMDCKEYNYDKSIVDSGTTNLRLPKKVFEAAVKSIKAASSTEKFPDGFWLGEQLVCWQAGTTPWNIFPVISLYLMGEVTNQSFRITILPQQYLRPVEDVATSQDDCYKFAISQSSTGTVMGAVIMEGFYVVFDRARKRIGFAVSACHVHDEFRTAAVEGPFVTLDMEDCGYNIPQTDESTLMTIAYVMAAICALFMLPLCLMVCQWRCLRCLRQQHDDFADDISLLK

Take `CC(C)=CCC/C(C)=C/COc1c2occc2cc2ccc(=O)oc12`: the Ki at Beta-secretase 1 [1] came out at 61.9 µM; on Beta-secretase 1 [2], 61.6 µM. Moreover, the inhibition entry at Beta-secretase 1 [3] is “Active”. The IC50 on Beta-secretase 1 [4] came out at 20.4 µM.
As to `CC(C)=CCOc1c2ccoc2c(OCC=C(C)C)c2oc(=O)ccc12`, on Beta-secretase 1 [4], the IC50 was > 500 µM.
Take `O=c1ccc2c(O)c3ccoc3c(O)c2o1`: on Beta-secretase 1 [4], the IC50 is > 500 µM.
Turning to `COc1c2ccoc2c(O)c2oc(=O)ccc12`, the IC50 on Beta-secretase 1 [4] was > 500 µM.
As for `CC(C)=CCOc1c2ccoc2c(O)c2oc(=O)ccc12`, the IC50 on Beta-secretase 1 [4] was > 500 µM.
Turning to `CC(C)=CCC/C(C)=C/COc1c2ccoc2c(O)c2oc(=O)ccc12`, the IC50 at Beta-secretase 1 [4] was > 500 µM.
Take `COc1c2occc2c(OC/C=C(\C)CCC=C(C)C)c2ccc(=O)oc12`: the Ki at Beta-secretase 1 [1] is 13.7 µM; at Beta-secretase 1 [2] it was 103 µM. For the same compound, at Beta-secretase 1 [5], the inhibition entry was “Active”. In addition, the IC50 on Beta-secretase 1 [4] stood at 9.9 µM.
Turning to `COc1c2ccoc2c(OC/C=C(\C)CCC=C(C)C)c2oc(=O)ccc12`, the IC50 on Beta-secretase 1 [4] worked out at 11.1 µM.
In the case of `CC[C@H](C)[C@H](NC(=O)[C@H](CCC(=O)O)NC(=O)[C@H](CCC(=O)O)NC(=O)[C@@H](NC(=O)[C@@H](N)CCCCN)[C@@H](C)O)C(=O)N[C@@H](CO)C(=O)N[C@@H](CCC(=O)O)C(=O)N[C@H](C(=O)N[C@@H](CC(N)=O)C(=O)N[C@@H](CC(C)C)[C@@H](O)CC(=O)N[C@H](C(=O)N[C@@H](C)C(=O)N[C@@H](CCC(=O)O)C(=O)N[C@@H](Cc1ccccc1)C(=O)O)C(C)C)C(C)C` (H-KTEEISEVN[Sta]VAEF-OH), the IC50 on Beta-secretase 1 [4] is 0.2 µM.
The same measure, in the same setting: in the case of `CC(C)=CCOc1ccc2ccc(=O)oc2c1` [7-PRENYLOXYCOUMARIN] it was > 500 µM; in that of `O=c1ccc2ccc3occc3c2o1` [ANGELICIN], > 500 µM.
Consider `CC(C)=CCC/C(C)=C/COc1ccc2ccc(=O)oc2c1` [AURAPTENE], for which the IC50 at Beta-secretase 1 [4] came to 345 µM.
With `CC(C)=CCC/C(C)=C/COc1c2ccoc2cc2oc(=O)ccc12` [BERGAMOTTIN], the figures for the Ki on Beta-secretase 1 [1] and at Beta-secretase 1 [2] were 0.7 µM and 34.8 µM, respectively. Also, on Beta-secretase 1 [5], the inhibition result was “Active”. Besides, the IC50 on Beta-secretase 1 [4] stood at 32.2 µM.
As to `COc1c2ccoc2cc2oc(=O)ccc12` [BERGAPTEN], the IC50 at Beta-secretase 1 [4] was > 500 µM.
Take `O=c1ccc2c(O)c3ccoc3cc2o1` [BERGAPTOL]: the IC50 on Beta-secretase 1 [4] was > 500 µM.
In the case of `COc1c2ccoc2c(OC[C@@H](O)C(C)(C)O)c2oc(=O)ccc12` [BYAKANGELICIN], the IC50 on Beta-secretase 1 [4] was determined as 220 µM.
On the same count and under the same terms, the value for `COc1c2ccoc2c(OC[C@H]2OC2(C)C)c2oc(=O)ccc12` [BYAKANGELICOL] was 105 µM; that for `CC(C)(O)[C@@H]1Cc2c(ccc3ccc(=O)oc23)O1` [COLUMBIANETIN] was > 500 µM.
On the same count and under the same terms, in the case of `O=c1ccc2ccccc2o1` [COUMARIN] it was > 500 µM.
For the compound `C/C=C(\C)C(=O)O[C@H]1Cc2cc3ccc(=O)oc3cc2OC1(C)C` [DECURSINOL TIGLATE], the IC50 on Beta-secretase 1 [4] was > 500 µM.
Same read-out and setting: the value for `CC1(C)Oc2cc3oc(=O)ccc3cc2C[C@@H]1O` [DECURSINOL] was > 500 µM; that for `CC(C)=CC(=O)O[C@H]1Cc2cc3ccc(=O)oc3cc2OC1(C)C` [DECURSIN] was > 500 µM; that for `CC(C)=CCc1cc2ccc(=O)oc2cc1O` [DEMETHYLSUBEROSIN] was 413 µM.
As for `CC1(C)CCc2cc3ccc(=O)oc3cc2O1` [DIHYDROXANTHYLETIN], the IC50 at Beta-secretase 1 [4] was > 500 µM.
Same read-out and setting: in the case of `CC1(C)O[C@@H]1COc1c2occc2cc2ccc(=O)oc12` [HERACLENIN] it was 444 µM; in that of `CC(C)(O)[C@H](O)COc1c2occc2cc2ccc(=O)oc12` [HERACLENOL], > 500 µM.
With `COc1ccc2ccc(=O)oc2c1` [HERNIARIN], at Beta-secretase 1 [4], the IC50 is > 500 µM.
On to `COc1c2ccoc2c(OC)c2oc(=O)ccc12` [ISOPIMPINELLIN], for which the IC50 on Beta-secretase 1 [4] was > 500 µM.
For the compound `COc1c2occc2c(OCC=C(C)C)c2ccc(=O)oc12` [KINIDILIN], the IC50 on Beta-secretase 1 [4] is 344 µM.
Turning to `CC1(C)Oc2ccc3ccc(=O)oc3c2CC1O` (centres undefined) [LOMATIN], the IC50 on Beta-secretase 1 [4] was > 500 µM.
On the same count and under the same terms, in the case of `CC(C)(O)[C@@H]1Cc2cc3ccc(=O)oc3cc2O1` [MARMESIN] it was > 500 µM.
Turning to `COc1c2occc2cc2ccc(=O)oc12` [METHOXSALEN], the IC50 on Beta-secretase 1 [4] was > 500 µM.
Take `CC(C)=CCc1c(O)ccc2ccc(=O)oc12` [OSTHENOL]: the IC50 on Beta-secretase 1 [4] is > 500 µM.
For the compound `COc1ccc2ccc(=O)oc2c1CC=C(C)C` [OSTHOLE], at Beta-secretase 1 [4], the IC50 was > 500 µM.
Turning to `CC(C)(O)[C@H](O)COc1c2ccoc2cc2oc(=O)ccc12` [OXYPEUCEDANIN HYDRATE], on Beta-secretase 1 [4], the concentration for half-maximal inhibition (IC50) is > 500 µM.
Turning to `CC1(C)O[C@H]1COc1c2ccoc2cc2oc(=O)ccc12` [OXYPEUCEDANIN], on Beta-secretase 1 [4], the IC50 was 359 µM.
Regarding `CC(C)=CCOc1c2occc2cc2ccc(=O)oc12` [PENTOSALEN], the IC50 at Beta-secretase 1 [4] was 91.8 µM.
For `COc1c2ccoc2c(OCC=C(C)C)c2oc(=O)ccc12` [PHELLOPTERIN], the IC50 at Beta-secretase 1 [4] amounted to 143 µM.
In the case of `O=c1ccc2cc3ccoc3cc2o1` [PSORALEN], at Beta-secretase 1 [4], the concentration for half-maximal inhibition (IC50) was > 500 µM.
As to `COc1cc2ccc(=O)oc2cc1OC` [SCOPARONE], on Beta-secretase 1 [4], the IC50 was > 500 µM.
On to `CC1(C)C=Cc2c(ccc3ccc(=O)oc23)O1` [SESALIN], for which, at Beta-secretase 1 [4], the 50% inhibitory concentration (IC50) was > 500 µM.
For the compound `COc1cc2oc(=O)ccc2cc1CC=C(C)C` [SUBEROSIN], the IC50 on Beta-secretase 1 [4] is > 500 µM.
On the same count and under the same terms, in the case of `O=c1ccc2ccc(O)cc2o1` [UMBELLIFERONE] it was > 500 µM; in that of `O=c1ccc2cc3ccoc3c(O)c2o1` [XANTHOTOXOL], > 500 µM.
Same read-out and setting: in the case of `CC1(C)C=Cc2cc3ccc(=O)oc3cc2O1` [XANTHYLETIN] it was > 500 µM.
